The values that follow come from US20050124622A1, “Compounds and methods for the treatment of pain” (priority 1999, published 2005).

For the first assay, the target named is T1, NMDA receptor glycine site (Rattus norvegicus, UniProt P35439).
T1 construct: brain membranes bearing the receptor; tissue Analytical Biological Services Inc; host or cells: rat brain (cerebral cortex and hippocampus) membranes
Kind of assay: Test A: Inhibition of binding of [3H]-MDL105,519 to brain membranes.
Conditions: not given
The source says: Test A: Inhibition of Binding of [^3H]-MDL105,519:
Binding of compounds to the NMDA receptor glycine site may be assessed by measuring the ability of test compounds to inhibit the binding of tritiated MDL105,519 to brain membranes bearing the receptor.
Briefly, fresh brain tissue including cerebral cortex and hippocampus from male Sprague Dawley rats was homogenized in 0.32 M sucrose and centrifuged at low speed to separate cellular membranes from other cellular components. The membranes were then washed 3 times using deionized water, followed by treatment with 0.04% Triton X-100. Finally, membranes were washed six times in 50 mM Tris citrate buffer, pH 7.4, and frozen at −80° C. until use.
[^3H]MDL105,519 (72 Ci/mmol) was purchased from Amersham. Cold MDL105,519 was purchased from Sigma/RBI. […] On the day of the experiment, brain membranes were thawed at room temperature and suspended in 50 mM tris acetate buffer, pH 7.4 (“TAB”). Seventy-five micro grams per milliliter protein (by using the BioRad dye) were used for competition binding. The experiments were carried out using 96-well plates. […] Non specific binding was determined by using 100 μM of unlabeled MDL105,519. […] After incubation, unbound [^3H]MDL105,519 was removed by filtration onto GF/B Unifilter plates using a Packard harvester. Filters were washed four times with ice cold TAB (total of 1.2 mL buffer). The plates were dried overnight at room temperature and bound radioactivity was measured on a Packard TopCount after the addition of 45 μL per well of the MICROSCINT O.
Human Brain Membranes: Human brain membranes were obtained from Analytical Biological Services Inc., and assays were performed as described for rat membranes.
Data analysis: Data was analyzed using a Microsoft Excel spreadsheet and GraphPad Prizm software and potency of compounds is expressed as the Ki (nM).
As for `O=c1c2ccc(Cl)cc2[nH]c2c(O)nn(CC3CCCO3)c(=O)c12` (racemic) [Ex. 4, 7-Chloro-4-hydroxy-2-(tetrahydro-furan-2-ylmethyl)-1,2,5,10-tetrahydropyridazino[4,5-b]quinoline-1,10-dione], the affinity corresponds to a Ki of 449 nM.

For the molecule `O=c1c2ccc(Cl)cc2[nH]c2c(O)nn(Cc3ccc(-c4nnco4)cc3)c(=O)c12` [Ex. 1, 7-Chloro-4-hydroxy-2-(4-[1,3,4]oxadiazol-2-yl-benzyl)-1,2,5,10-tetrahydropyridazino[4,5-b]quinoline-1,10-dione], affinity was put at a Ki of 95.8 nM.

Consider `Cc1ncc(CO)c(Cn2nc(O)c3[nH]c4cc(Cl)ccc4c(=O)c3c2=O)c1O` [Ex. 3, 7-Chloro-4-hydroxy-2-[3-hydroxy-5(hydroxymethyl)-2-methyl(4-pyridyl)]methyl-1,2,5,10-tetrahydropyridazino[4,5-b]quinoline-1,10-dione Methanesulfonate], for which the Ki (commonly a dissociation constant, usually derived from enzyme kinetics or from competition with a known ligand) is 1150 nM.

`O=Cc1ccc(Cn2nc(O)c3[nH]c4cc(Cl)ccc4c(=O)c3c2=O)cc1` [Ex. 7, 4-[(7-Chloro-4-hydroxy-1,10-dioxo-2.5-dihydropyridazino[4,5-b]quinolin-2-yl)methyl]benzaldehyde] yielded a Ki of 173 nM.

`CC(C)(C)OC(=O)NN=Cc1ccc(Cn2nc(O)c3[nH]c4cc(Cl)ccc4c(=O)c3c2=O)cc1` [Ex. 8] registered a Ki of 124 nM. The Ki values of the last two molecules are within 1.5-fold of each other.

For the molecule `O=c1c2ccc(Cl)cc2[nH]c2c(O)nn(Cc3ccc(C=NNc4ccccn4)cc3)c(=O)c12` [Ex. 9, 2-{[4-[2-Aza-2-(2-pyridylamino)vinyl]phenyl}methyl)-7-chloro-4-hydroxy-2,5-dihydropyridazino[4,5-b]quinoline-1,10-dione], the Ki was determined as 159 nM.

Regarding `O=C(NN=Cc1ccc(Cn2nc(O)c3[nH]c4cc(Cl)ccc4c(=O)c3c2=O)cc1)c1ccccc1` [Ex. 10], the inhibition constant (Ki) amounted to 91 nM.

`Cc1cc(C)c(S(=O)(=O)NN=Cc2ccc(Cn3nc(O)c4[nH]c5cc(Cl)ccc5c(=O)c4c3=O)cc2)c(C)c1` [Ex. 11, 2-{[4-(2-Aza-2-{[(2,4,6-trimethylphenyl)sulfonyl]amino}vinyl)phenyl]methyl}-7-chloro-4-hydroxy-2,5-dihydropyridazino[4,5-b]quinoline-1,10-dione] registered a Ki of 227 nM.

Still in this assay, the particulars now being: inhibition of 1.2 nM [3H]MDL105,519 binding to brain membranes, 30 minutes at room temperature.
With `O=c1c2ccc(Cl)cc2[nH]c2c(O)nn(Cc3cccc(-c4nnn[nH]4)c3)c(=O)c12` [Ex. 2, 7-Chloro-4-hydroxy-2-[3-(1H-tetrazol-5-yl)-benzyl]-1,2,5,10-tetrahydropyridazino[4.5-b]quinoline-1,10-dione.], the affinity corresponds to a Ki of 42.7 nM.

Take `COc1ccc(-c2nnc(Cn3nc(O)c4[nH]c5cc(Cl)ccc5c(=O)c4c3=O)o2)cc1` [Ex. 5, 7-Chloro-4-hydroxy-2-[5-(4-methoxy-phenyl)-[1,3,4]oxadiazol-2-ylmethyl]-1,2,5,5,10-tetrahydropyridazino[4,5-b]quinoline-1,10-dione]: the inhibition constant (Ki) turned out to be 146 nM.
